Data published in ChEMBL document CHEMBL1144831, “Pyrano-[2,3b]-pyridines as potassium channel antagonists” (Bioorg Med Chem Lett, 2008).
≈ marks a conversion by molar mass, not a printed value.

Experiments:
[1] = molecular target: T1, Potassium voltage-gated channel subfamily A member 5 (Homo sapiens, UniProt P22460); assay: Inhibition of human Kv1.5 channel expressed in mouse L929 cells assessed as blockade of ultra rapidly activating potassium current by voltage clamp technique; assay type: cell-based
T1 sequence (P22460 whole entry): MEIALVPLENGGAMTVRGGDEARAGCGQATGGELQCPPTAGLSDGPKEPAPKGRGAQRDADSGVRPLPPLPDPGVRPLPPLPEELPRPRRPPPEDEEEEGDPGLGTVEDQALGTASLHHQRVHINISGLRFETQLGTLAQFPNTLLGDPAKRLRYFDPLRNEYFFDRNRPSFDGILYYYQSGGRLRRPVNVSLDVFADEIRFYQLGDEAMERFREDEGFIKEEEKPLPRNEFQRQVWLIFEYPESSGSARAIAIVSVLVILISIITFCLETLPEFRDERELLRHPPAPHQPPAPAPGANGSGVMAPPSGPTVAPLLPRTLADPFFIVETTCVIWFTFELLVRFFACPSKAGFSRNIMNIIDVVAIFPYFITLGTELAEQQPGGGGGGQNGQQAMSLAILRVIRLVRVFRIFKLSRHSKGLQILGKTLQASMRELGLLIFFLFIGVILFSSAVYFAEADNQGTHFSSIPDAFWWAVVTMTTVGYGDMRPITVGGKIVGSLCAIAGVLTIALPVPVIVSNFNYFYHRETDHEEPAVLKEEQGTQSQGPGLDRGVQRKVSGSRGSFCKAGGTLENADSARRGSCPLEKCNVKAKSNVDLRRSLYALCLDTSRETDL

[2] = Aqueous solubility at pH 6.5; assay type: physicochemical
[3] = molecular target: T1, Potassium voltage-gated channel subfamily A member 5; assay: Inhibition of human Kv1.5 channel expressed in mouse L929 cells assessed as blockade of ultra rapidly activating potassium current at 1 uM by voltage clamp technique; assay type: cell-based

Row | IC50 [1] [nM] | solubility [2] [µg/mL] | inhibition [3] [%] | Compound
1 | 46 |  |  | CCc1ccc(S(=O)(=O)N[C@H]2CCCc3ccc(N(Cc4cccc(C)n4)C(=O)CCc4ccccc4)cc32)cc1
2 | 50 |  |  | CCc1ccc(S(=O)(=O)N[C@@H]2c3cc(NC(=O)c4cccc(OC)c4)ccc3C[C@H]2O)cc1
3 |  | 10 (≈ 18.5 µM) |  | CCc1ccc(S(=O)(=O)N[C@@H]2c3cc(C(=O)N(CC)Cc4ccccc4F)ccc3OC(C)(C)[C@H]2O)cc1 (racemic)
4 | 2090 |  | 35 | CCc1ccc(S(=O)(=O)N[C@@H]2c3cc(C(=O)N(CC)Cc4ccccc4OC)cnc3OC(C)(C)[C@H]2O)cc1 (racemic)
5 | 1560 |  | 15 | CCc1ccc(S(=O)(=O)N[C@@H]2c3cc(C(=O)N(CC)Cc4ccc(C)cc4)cnc3OC(C)(C)[C@H]2O)cc1 (racemic)
6 | 912 |  | 52 | CCc1ccc(S(=O)(=O)N[C@@H]2c3cc(C(=O)N(CC)c4cc(F)ccc4F)cnc3OC(C)(C)[C@H]2O)cc1 (racemic)
7 | 615 |  | 54 | CCc1ccc(S(=O)(=O)N[C@@H]2c3cc(C(=O)N(CC)Cc4c(F)cccc4Cl)cnc3OC(C)(C)[C@H]2O)cc1 (racemic)
8 | 316 |  | 73 | CCc1ccc(S(=O)(=O)N[C@@H]2c3cc(C(=O)Nc4ccc(Br)cc4)ccc3OC(C)(C)[C@H]2O)cc1 (racemic)
9 | 605 |  | 70 | CCc1ccc(S(=O)(=O)N[C@@H]2c3cc(C(=O)N(CC)Cc4ccc(OC)cc4)cnc3OC(C)(C)[C@H]2O)cc1 (racemic)
10 | 60 |  |  | CCc1ccc(S(=O)(=O)N[C@@H]2c3cc(C(=O)N4CCC[C@H]4CNc4c(C)cccc4C)ccc3OC(C)(C)[C@H]2O)cc1 (racemic)
11 | 378 | 108 (≈ 212 µM) | 89 | CCc1ccc(S(=O)(=O)N[C@@H]2c3cc(C(=O)N(CC)c4ccccc4)cnc3OC(C)(C)[C@H]2O)cc1 (racemic)
12 | 649 |  | 64 | CCc1ccc(S(=O)(=O)N[C@@H]2c3cc(C(=O)N(CC)c4cccc(Cl)c4)cnc3OC(C)(C)[C@H]2O)cc1 (racemic)
13 | 776 |  | 58 | CCc1ccc(S(=O)(=O)N[C@@H]2c3cc(C(=O)N(CC)c4cccc(C)c4)cnc3OC(C)(C)[C@H]2O)cc1 (racemic)
14 |  |  | 12 | CCc1ccc(S(=O)(=O)N[C@@H]2c3cc(C(=O)N(C)Cc4ccccc4)cnc3OC(C)(C)[C@H]2O)cc1 (racemic)
15 |  |  | 87 | CCc1ccc(S(=O)(=O)N[C@@H]2c3cc(C(=O)N(C)c4ccccc4)ccc3OC(C)(C)[C@H]2O)cc1 (racemic)
16 |  |  | 12 | CCc1ccc(S(=O)(=O)N[C@@H]2c3cc(C(=O)N(C)c4ccccc4)cnc3OC(C)(C)[C@H]2O)cc1 (racemic)
17 |  |  | 23 | CCc1ccc(S(=O)(=O)N[C@@H]2c3cc(C(=O)N(CC)Cc4cccc(OC)c4)cnc3OC(C)(C)[C@H]2O)cc1 (racemic)
18 |  |  | 20 | CCc1ccc(S(=O)(=O)N[C@@H]2c3cc(C(=O)N(CC)Cc4ccccc4)cnc3OC(C)(C)[C@H]2O)cc1 (racemic)
19 |  |  | 22 | CCc1ccc(S(=O)(=O)N[C@@H]2c3cc(C(=O)N(CC)c4ccc(OC)cc4)cnc3OC(C)(C)[C@H]2O)cc1 (racemic)
20 |  |  | 15 | CCc1ccc(S(=O)(=O)N[C@@H]2c3cc(C(=O)N4CCC[C@H]4CNc4c(C)cccc4C)cnc3OC(C)(C)[C@H]2O)cc1 (racemic)
21 |  |  | 2 | CCc1ccc(S(=O)(=O)N[C@@H]2c3cc(C(=O)N4CCN=C4c4ccccc4)cnc3OC(C)(C)[C@H]2O)cc1 (racemic)
22 |  |  | 30 | CCc1ccc(S(=O)(=O)N[C@@H]2c3cc(C(=O)N4CCc5ccccc54)cnc3OC(C)(C)[C@H]2O)cc1 (racemic)
23 |  |  | 17 | CCc1ccc(S(=O)(=O)N[C@@H]2c3cc(C(=O)NCc4ccccc4)cnc3OC(C)(C)[C@H]2O)cc1 (racemic)
24 |  |  | 4 | CCc1ccc(S(=O)(=O)N[C@@H]2c3cc(C(=O)NCc4ccccc4F)cnc3OC(C)(C)[C@H]2O)cc1 (racemic)
25 |  |  | 31 | CCc1ccc(S(=O)(=O)N[C@@H]2c3cc(C(=O)Nc4cc(NC(C)=O)n[nH]4)cnc3OC(C)(C)[C@H]2O)cc1 (racemic)
26 |  |  | 8 | CCc1ccc(S(=O)(=O)N[C@@H]2c3cc(C(=O)Nc4ccc(Br)cc4)cnc3OC(C)(C)[C@H]2O)cc1 (racemic)
27 |  |  | 3 | CCc1ccc(S(=O)(=O)N[C@@H]2c3cc(C(=O)Nc4nnc(C(F)(F)F)s4)cnc3OC(C)(C)[C@H]2O)cc1 (racemic)
